# Data: US20240270810A1, “PREPARATION AND APPLICATION OF POLYPEPTIDE” (GUANGDONG RAYNOVENT BIOTECH CO., LTD., priority 2021, published 2024)
# Legend:
# GLP-1R = target: T1, GLP-1R (Homo sapiens, UniProt P43220); experiment: In vitro GLP-1R agonistic activity test (cAMP kit); format: cell-based; conditions: HEK293 host cells
# T1 construct: host or cells: HEK293
# Protocol: (§1) The cell lines were constructed by Wuxi […] (Shanghai) Co., Ltd. See details in Table 1 below. [table] [table] The test compounds were diluted at a 4-fold dilution factor in 10 points, starting from an initial concentration of 30 μM. The dilution was carried out by Bravo. • 1) 100 nL of compounds were transferred to an OptiPlate-384 plate by Echo. • 2) The OptiPlate-384 plate was centrifuged at 1000 rpm for 5 s. • 1) A GLP-1R/GIPR cell cryovial was placed in warm water at 37° C. for rapid thawing. • 2) The cell suspension was transferred into a 15 mL Transfer centrifugal tube and rinsed with 10 mL of HBSS gently. • 3) The centrifugal tube was centrifuged at 1000 rpm at room temperature for 1 min. • 4) The supernatant was discarded. • 5) The bottom cells were gently dispersed, then gently rinsed with 10 mL of HBSS, the centrifugal tube was centrifuged to settle the cells, and finally the cells were resuspended in an experimental buffer. • 6) Cell density and viability were measured by Vi-cell. • 7) The GLP-1R/GIPR cells were diluted with the experimental buffer to a concentration of 2.0*10^5/mL. • 8) […] of the diluted cell suspension was transferred into the OptiPlate-384 plate. • 9) Incubation was performed at room temperature for 30 min. • 1) 10 μL of 800 nM gradient diluted cAMP standard was added into the empty wells of the OptiPlate-384 plate. • 2) 10 μL of cAMP assay reagent was added. • 3) The OptiPlate-384 plate was covered with TopSeal-A film and incubated at room temperature for 60 min. The TopSeal-A film was removed, and readout was performed on En Vision.
# GIPR = target: T2, GIPR (Homo sapiens, UniProt P48546); experiment: In vitro GIPR agonistic activity test (cAMP kit); format: cell-based; conditions: CHO host cells
# T2 construct: host or cells: CHO
# T2 sequence (P48546 22-466): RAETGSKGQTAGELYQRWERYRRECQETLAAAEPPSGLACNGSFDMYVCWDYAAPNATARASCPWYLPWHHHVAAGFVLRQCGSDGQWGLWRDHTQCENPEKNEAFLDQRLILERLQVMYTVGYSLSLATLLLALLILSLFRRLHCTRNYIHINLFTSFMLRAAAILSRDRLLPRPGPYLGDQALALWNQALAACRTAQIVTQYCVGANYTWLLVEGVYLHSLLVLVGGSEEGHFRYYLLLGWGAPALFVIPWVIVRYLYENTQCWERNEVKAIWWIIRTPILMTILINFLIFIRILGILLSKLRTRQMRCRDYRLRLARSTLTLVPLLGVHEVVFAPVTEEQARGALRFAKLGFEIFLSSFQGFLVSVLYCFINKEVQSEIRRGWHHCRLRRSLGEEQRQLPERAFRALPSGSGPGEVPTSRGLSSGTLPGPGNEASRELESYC
# Protocol: as §1, with “[table] [table]” left out
# T1 sequence (P43220 24-463, species assumed): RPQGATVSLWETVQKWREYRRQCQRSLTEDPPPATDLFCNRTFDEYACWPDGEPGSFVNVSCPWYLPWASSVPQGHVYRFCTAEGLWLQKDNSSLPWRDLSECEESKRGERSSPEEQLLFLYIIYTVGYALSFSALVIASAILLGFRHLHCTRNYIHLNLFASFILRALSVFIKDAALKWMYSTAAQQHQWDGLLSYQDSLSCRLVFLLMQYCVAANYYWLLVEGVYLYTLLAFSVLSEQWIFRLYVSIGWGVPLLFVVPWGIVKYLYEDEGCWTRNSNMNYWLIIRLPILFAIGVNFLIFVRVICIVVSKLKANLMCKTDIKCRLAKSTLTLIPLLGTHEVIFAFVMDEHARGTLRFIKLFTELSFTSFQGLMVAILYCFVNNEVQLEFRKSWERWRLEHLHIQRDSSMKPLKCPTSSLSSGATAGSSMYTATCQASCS
EC50 (GLP-1R; with 1% HSA) [nM],EC50 (GLP-1R; without 1% HSA) [nM],EC50 (GIPR; with 1% HSA) [nM],EC50 (GIPR; without 1% HSA) [nM],Compound
31.3,0.19,12.5,0.43,CC[C@H](C)[C@H](NC(=O)[C@H](CC(C)C)NC(=O)[C@H](Cc1c[nH]c2ccccc12)NC(=O)[C@@H]1CCCCNC(=O)CN(C(=O)COCCOCCNC(=O)COCCOCCNC(=O)CC[C@H](NC(=O)CCCCCCCCCCCCCCCCCCC(=O)O)C(=O)O)CC(=O)NCCCC[C@H](NC(=O)[C@H](CCC(N)=O)NC(=O)[C@H](C)NC(=O)[C@@H](NC(=O)[C@H](CCCCN)NC(=O)[C@H](CC(=O)O)NC(=O)[C@H](CC(C)C)NC(=O)C(C)(C)NC(=O)[C@@H](NC(=O)[C@H](CO)NC(=O)[C@H](Cc2ccc(O)cc2)NC(=O)[C@H](CC(=O)O)NC(=O)[C@H](CO)NC(=O)[C@@H](NC(=O)[C@H](Cc2ccccc2)NC(=O)[C@@H](NC(=O)CNC(=O)[C@H](CCC(=O)O)NC(=O)C(C)(C)NC(=O)[C@@H](N)Cc2ccc(O)cc2)[C@@H](C)O)[C@@H](C)O)[C@@H](C)CC)[C@@H](C)CC)C(=O)N[C@@H](CCC(=O)O)C(=O)N[C@@H](Cc2ccccc2)C(=O)N[C@@H](C(C)C)C(=O)N1)C(=O)N[C@@H](C)C(=O)NCC(=O)NCC(=O)N1CCC[C@H]1C(=O)N[C@@H](CO)C(=O)N[C@@H](CO)C(=O)NCC(=O)N[C@@H](C)C(=O)N1CCC[C@H]1C(=O)N1CCC[C@H]1C(=O)N1CCC[C@H]1C(=O)N[C@@H](CO)C(N)=O [WX-002]
14,0.54,–,1.07,CC[C@H](C)[C@H](NC(=O)[C@H](CC(C)C)NC(=O)[C@H](Cc1c[nH]c2ccccc12)NC(=O)[C@@H]1CCCCNC(=O)CN(C(=O)COCCOCCNC(=O)COCCOCCNC(=O)CC[C@H](NC(=O)CCCCCCCCCCCCCCCCCCC(=O)O)C(=O)O)CC(=O)NCCCC[C@H](NC(=O)[C@H](CCC(N)=O)NC(=O)[C@H](C)NC(=O)[C@@H](NC(=O)[C@H](CCCCN)NC(=O)[C@H](CC(=O)O)NC(=O)[C@H](CC(C)C)NC(=O)C(C)(C)NC(=O)[C@@H](NC(=O)[C@H](CO)NC(=O)[C@H](Cc2ccc(O)cc2)NC(=O)[C@H](CC(=O)O)NC(=O)[C@H](CO)NC(=O)[C@@H](NC(=O)[C@H](Cc2ccccc2)NC(=O)[C@@H](NC(=O)CNC(=O)[C@H](CCC(=O)O)NC(=O)C(C)(C)NC(=O)[C@@H](N)Cc2ccc(O)cc2)[C@@H](C)O)[C@@H](C)O)[C@@H](C)CC)[C@@H](C)CC)C(=O)N[C@@H](C)C(=O)N[C@@H](Cc2ccccc2)C(=O)N[C@@H]([C@@H](C)CC)C(=O)N1)C(=O)N[C@@H](C)C(=O)NCC(=O)NCC(=O)N1CCC[C@H]1C(=O)N[C@@H](CO)C(=O)N[C@@H](CO)C(=O)NCC(=O)N[C@@H](C)C(=O)N1CCC[C@H]1C(=O)N1CCC[C@H]1C(=O)N1CCC[C@H]1C(=O)N[C@@H](CO)C(N)=O [WX-003]
84.3,1.86,21.4,1.36,CC[C@H](C)[C@H](NC(=O)[C@H](CC(C)C)NC(=O)[C@H](Cc1c[nH]c2ccccc12)NC(=O)[C@@H]1CCCCNC(=O)CN(C(=O)COCCOCCNC(=O)COCCOCCNC(=O)CC[C@H](NC(=O)CCCCCCCCCCCCCCCCCCC(=O)O)C(=O)O)CC(=O)NCCCC[C@H](NC(=O)[C@H](CCC(N)=O)NC(=O)[C@H](C)NC(=O)[C@@H](NC(=O)[C@H](CCCCN)NC(=O)[C@H](CC(=O)O)NC(=O)[C@H](CC(C)C)NC(=O)C(C)(C)NC(=O)[C@@H](NC(=O)[C@H](CO)NC(=O)[C@H](Cc2ccc(O)cc2)NC(=O)[C@H](CC(=O)O)NC(=O)[C@H](CO)NC(=O)[C@@H](NC(=O)[C@H](Cc2ccccc2)NC(=O)[C@@H](NC(=O)CNC(=O)[C@H](CCC(=O)O)NC(=O)C(C)(C)NC(=O)[C@@H](N)Cc2ccc(O)cc2)[C@@H](C)O)[C@@H](C)O)[C@@H](C)CC)[C@@H](C)CC)C(=O)N[C@@H](C)C(=O)N[C@@H](Cc2ccccc2)C(=O)N[C@@H](C(C)C)C(=O)N1)C(=O)N[C@@H](C)C(=O)NCC(=O)NCC(=O)N1CCC[C@H]1C(=O)N[C@@H](CO)C(=O)N[C@@H](CO)C(=O)NCC(=O)N[C@@H](C)C(=O)N1CCC[C@H]1C(=O)N1CCC[C@H]1C(=O)N1CCC[C@H]1C(=O)N[C@@H](CO)C(N)=O [WX-004]
–,0.027,–,0.26,CC[C@H](C)[C@H](NC(=O)[C@H](CC(C)C)NC(=O)[C@H](Cc1c[nH]c2ccccc12)NC(=O)[C@H](CCC(N)=O)NC(=O)[C@@H](NC(=O)[C@H](Cc1ccccc1)NC(=O)[C@H](C)NC(=O)[C@@H]1CCCCNC(=O)CN(C(=O)COCCOCCNC(=O)COCCOCCNC(=O)CC[C@H](NC(=O)CCCCCCCCCCCCCCCCCCC(=O)O)C(=O)O)CC(=O)NCCCC[C@H](NC(=O)[C@H](CCCCN)NC(=O)[C@H](CC(=O)O)NC(=O)[C@H](CC(C)C)NC(=O)C(C)(C)NC(=O)[C@@H](NC(=O)[C@H](CO)NC(=O)[C@H](Cc2ccc(O)cc2)NC(=O)[C@H](CC(=O)O)NC(=O)[C@H](CO)NC(=O)[C@@H](NC(=O)[C@H](Cc2ccccc2)NC(=O)[C@@H](NC(=O)CNC(=O)[C@H](CCC(=O)O)NC(=O)C(C)(C)NC(=O)[C@@H](N)Cc2ccc(O)cc2)[C@@H](C)O)[C@@H](C)O)[C@@H](C)CC)C(=O)N[C@@H](C)C(=O)N[C@@H](CCC(N)=O)C(=O)N1)C(C)C)C(=O)N[C@@H](C)C(=O)NCC(=O)NCC(=O)N1CCC[C@H]1C(=O)N[C@@H](CO)C(=O)N[C@@H](CO)C(=O)NCC(=O)N[C@@H](C)C(=O)N1CCC[C@H]1C(=O)N1CCC[C@H]1C(=O)N1CCC[C@H]1C(=O)N[C@@H](CO)C(N)=O [WX-006]
–,0.18,–,2.74,CC[C@H](C)[C@H](NC(=O)[C@H](CC(C)C)NC(=O)[C@H](Cc1c[nH]c2ccccc12)NC(=O)[C@@H](NC(=O)[C@@H](NC(=O)[C@H](Cc1ccccc1)NC(=O)[C@H](C)NC(=O)[C@@H]1CCCCNC(=O)CN(C(=O)COCCOCCNC(=O)COCCOCCNC(=O)CC[C@H](NC(=O)CCCCCCCCCCCCCCCCCCC(=O)O)C(=O)O)CC(=O)NCCCC[C@H](NC(=O)[C@H](CCCCN)NC(=O)[C@H](CC(=O)O)NC(=O)[C@H](CC(C)C)NC(=O)C(C)(C)NC(=O)[C@@H](NC(=O)[C@H](CO)NC(=O)[C@H](Cc2ccc(O)cc2)NC(=O)[C@H](CC(=O)O)NC(=O)[C@H](CO)NC(=O)[C@@H](NC(=O)[C@H](Cc2ccccc2)NC(=O)[C@@H](NC(=O)CNC(=O)[C@H](CCC(=O)O)NC(=O)C(C)(C)NC(=O)[C@@H](N)Cc2ccc(O)cc2)[C@@H](C)O)[C@@H](C)O)[C@@H](C)CC)C(=O)N[C@@H](C)C(=O)N[C@@H](CCC(N)=O)C(=O)N1)C(C)C)[C@@H](C)CC)C(=O)N[C@@H](C)C(=O)NCC(=O)NCC(=O)N1CCC[C@H]1C(=O)N[C@@H](CO)C(=O)N[C@@H](CO)C(=O)NCC(=O)N[C@@H](C)C(=O)N1CCC[C@H]1C(=O)N1CCC[C@H]1C(=O)N1CCC[C@H]1C(=O)N[C@@H](CO)C(N)=O [WX-008]
